From article PMC6520732, “Exploring the Antiangiogenic Potential of Solomonamide A Bioactive Precursors: In Vitro and In Vivo Evidences of the Inhibitory Activity of Solo F-OH During Angiogenesis” (Marine Drugs, 2019)
In brackets after ≈: the same amount, converted by molar mass. Like-named read-outs stand apart in the source and are kept apart here. Values belong to the compound of their own block, whether it stands above or below them.

Columns and labels:
[1] = tested on: BAEC endothelial tubular-like structures formation; assay type: cell-based, bovine; conditions: 5 h
Description: (§1) Cellular suspensions of 5 × 10^4 BAE cells in serum-free DMEM were added to a 96-well plate coated with 50 µL of Matrigel (10.5 mg/mL) in the presence of the indicated treatments for 5 h and photographed with a microscope camera Nikon DS-Ri2 coupled to a Nikon Eclipse Ti microscope (Nikon, Tokyo, Japan). Each concentration was tested in duplicate, and staurosporine 2 µM was used as a routine positive assay control. For the disruption assay, tubular-like structures were formed following the same protocol for the control conditions; then, the indicated concentrations of Solo F–OH were added. After a further incubation time of 90 min, cultures were observed and photographed. Combretastatin-4-phosphate (CA4P) was used as positive control of the disruptor antiangiogenic drug.

[2] = tested on: bovine aortic endothelial cells (BAEC); conditions: 72 h of treatment, proliferating conditions; ref [17]; cited from earlier work
Source text: Table 1 Summary of the results obtained in the primary in vitro screening assays for the complete series of synthetic solomonamide precursors. BAEC: bovine aortic endothelial cells, MIC: minimum inhibitory concentration. | column: IC50 ^1 (μM) in BAEC [17]

ERK1/2 = test: Western blot of ERK1/2 phosphorylation in serum-induced BAEC; assay type: cell-based, bovine; conditions: 20 μM, 1 h treatment of starved BAEC, then 10% FBS for 10 min, two independent experiments
Description: (§2) BAE cells were starved in serum-free for 16 h. After one-hour treatment with Solo F-OH at 10 and 20 μM in the same conditions, cells were induced with 10% of FBS for 10 min. Protein lysates were obtained in radioimmunoprecipitation assay buffer (RIPA) (50 mM of Tris, pH 7.4, 150 mM of NaCl, 1% Triton X-100, 0.25% sodium deoxycholate, 1 mM of EDTA) containing phosphatase activity inhibitors (30 mM of sodium fluoride, 1 mM of sodium orthovanadate, 30 mM of β-glycerophosphate) and protease activity inhibitors (Complete mini, Roche, Mannheim, Germany). Protein concentration was determined using the Lowry method. Samples were subjected to SDS-PAGE electrophoresis and transferred to nitrocellulose membranes. […] Following one hour of incubation with horseradish peroxidase-conjugated secondary antibodies (MERK; goat anti-rabbit IgG HRP Linked Whole Antibody #NA934V; goat anti-mouse IgG (whole molecule)–Peroxidase antibody #A4416) at room temperature, immunoreactive bands were detected with SuperSignal West Pico Chemiluminescent Substrate (Pierce, Rockford, USA) and quantified by ImageJ software. The phosphorylated/total protein ratios were expressed as the percentage of the ratio in serum-stimulated samples in the absence of Solo F–OH.

human recombinant VEGFR2 = human recombinant VEGFR2 (Homo sapiens, UniProt P35968); test: In vitro measure of VEGFR2 TK activity (luminescent VEGFR2 (KDR) Kinase Assay Kit); conditions: 20 μM, 45 min at 30 °C; mean ± SD of four independent measures
BAEC invasion = test: Cell invasion assay on Matrigel-coated transwells; assay type: cell-based, bovine; conditions: 20% FBS in lower chamber, 16 h, read-out: Concentration reaching 50% of inhibition of BAEC invasion
Description: The invasion of endothelial cells was assayed by using 8.0-μm pore size transwell inserts coated with 100 µL of Matrigel 0.12 mg/mL solution. 10^5 BAE cells, in the absence or presence of the indicated concentrations of Solo F–OH, were added to the upper chamber of the transwells in the absence of serum, and the lower chamber was filled with 20% FBS DMEM. After 16 h of incubation, invading cells were fixed in 4% paraformaldehyde and stained with a 1% crystal violet solution in 2% ethanol. Cells were photographed with a microscope camera Nikon DS-Ri2 coupled to a Nikon Eclipse Ti microscope (Nikon, Tokyo, Japan).

[3] = tested on: already formed BAEC tubular-like structures; test: Vascular disruption assay in vitro (already formed tubular-like structures on Matrigel); assay type: cell-based, bovine; conditions: 90 min; even at a concentration 10-fold higher than the MIC of the tube formation assay
Description: as §1

CAM of chicken embryos = conditions: 48 h; for Positive/Total: methylcellulose disc
Description: Fertilized chick eggs were incubated horizontally at 38 °C in a humidified incubator, windowed by day 3 of incubation, and processed by day 8. […] Then, methylcellulose discs were implanted onto the CAM, and the eggs were sealed with adhesive tape and returned to the incubator for 48 h. Negative controls were always made with DMSO mixed with the methylcellulose, and aeroplysinin-1 (3 nmol/CAM) was used as a routine positive control of antiangiogenic compound [47]. After the incubation, the CAM was examined under a stereomicroscope and photographed with a Nikon DS-Ri2 camera. The results were analyzed by two different observers, and the assay was scored positive when both of them reported a significant reduction of vessels in the treated area.

Akt = test: Western blot of Akt phosphorylation in serum-induced BAEC; assay type: cell-based, bovine; conditions: 20 μM, 1 h treatment of starved BAEC, then 10% FBS for 10 min, two independent experiments
Description: as §2

MMP-2 [4] = target: T1, MMP-2 (Bos taurus, UniProt Q9GLE5); test: In situ inhibition of MMP-2 gelatinase activity (compound in zymography incubation buffer); assay type: biochemical, bovine; conditions: 20 μM in substrate buffer; conditioned media of untreated BAEC
T1 construct: conditioned media and cellular extracts of endothelial (BAEC) and tumor (HT1080) cell lines; endogenous in cells; host or cells: BAEC (bovine aortic endothelial cells)
T1 sequence (Q9GLE5 111-661): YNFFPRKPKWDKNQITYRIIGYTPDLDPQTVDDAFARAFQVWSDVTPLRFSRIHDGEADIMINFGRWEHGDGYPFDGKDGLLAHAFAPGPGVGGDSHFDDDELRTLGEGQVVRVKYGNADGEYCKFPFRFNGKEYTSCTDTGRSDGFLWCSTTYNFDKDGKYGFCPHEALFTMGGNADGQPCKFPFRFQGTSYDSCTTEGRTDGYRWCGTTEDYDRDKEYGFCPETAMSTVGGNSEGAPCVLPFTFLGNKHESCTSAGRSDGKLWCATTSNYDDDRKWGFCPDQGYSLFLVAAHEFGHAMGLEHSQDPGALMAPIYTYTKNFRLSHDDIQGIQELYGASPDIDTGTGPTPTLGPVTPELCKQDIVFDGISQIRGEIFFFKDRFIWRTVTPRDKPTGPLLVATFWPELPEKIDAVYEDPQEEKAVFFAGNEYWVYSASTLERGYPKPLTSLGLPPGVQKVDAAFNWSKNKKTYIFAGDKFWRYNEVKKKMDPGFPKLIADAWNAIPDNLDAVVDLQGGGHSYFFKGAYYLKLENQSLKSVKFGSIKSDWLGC
Description: A variant of this method was used to obtain complementary information about the direct inhibition of the tested compound on MMP-2 gelatinase activity: samples of conditioned media of untreated BAEC were subjected to gelatin zymography and, after electrophoresis, 20 μM of Solo F–OH was added to the substrate buffer. Detection of the degrading bands and quantification were performed as described above.

MMP-2 [5] = test: Gelatin zymography of conditioned media and cell extracts of treated BAEC; assay type: cell-based, bovine; conditions: 20 μM, 24 h
Description: (§3) Zymographies for matrix metalloproteinases MMP-2 and MMP-9 activities were performed in both conditioned media and cellular extracts of endothelial (BAEC) and tumor (HT1080) cell lines as described in Fajardo et al.. Briefly, cells seeded in six-well plates were incubated in serum-free culture medium with 0.1% BSA containing 200 KIU of aprotinin/mL and the correspondent treatment. After 24 h of incubation, conditioned media were collected, and cell lysates were obtained. Duplicates were used to determine the cell number, and samples were normalized for equal loading. In order to detect the gelatinolytic activity of MMP-9 and MMP-2, samples were loaded in non-reducing SDS/PAGE gels containing gelatin (1 mg/mL). After electrophoresis, gels were incubated overnight at 37 °C in a substrate buffer (50 mM of Tris/HCl, pH 7.4, supplemented with 1% Triton X-100, 5 mM CaCl2, and 0.02% Na3N) and stained with Coomassie blue R-250. The bands of gelatinase activity could be detected as non-stained bands in a dark, stained background. The size and intensity of the bands were quantified using Image J software.

[6] = tested on: subintestinal vessels (SIVs) of zebrafish embryos; test: FGF-2 induced angiogenesis zebrafish yolk membrane (ZFYM) assay; assay type: in vivo, zebrafish (Danio rerio); conditions: FGF-2 2 ng, 24 h
MMP-9 = test: Gelatin zymography of conditioned media and cell extracts of treated HT1080; assay type: cell-based, human; conditions: treated HT1080, 24 h
Description: as §3

MMP-2 [7] = test: as above; assay type: cell-based, human; conditions: treated HT1080, 24 h
Description: as §3

human recombinant VEGFR2, sequence (P35968 20-1356): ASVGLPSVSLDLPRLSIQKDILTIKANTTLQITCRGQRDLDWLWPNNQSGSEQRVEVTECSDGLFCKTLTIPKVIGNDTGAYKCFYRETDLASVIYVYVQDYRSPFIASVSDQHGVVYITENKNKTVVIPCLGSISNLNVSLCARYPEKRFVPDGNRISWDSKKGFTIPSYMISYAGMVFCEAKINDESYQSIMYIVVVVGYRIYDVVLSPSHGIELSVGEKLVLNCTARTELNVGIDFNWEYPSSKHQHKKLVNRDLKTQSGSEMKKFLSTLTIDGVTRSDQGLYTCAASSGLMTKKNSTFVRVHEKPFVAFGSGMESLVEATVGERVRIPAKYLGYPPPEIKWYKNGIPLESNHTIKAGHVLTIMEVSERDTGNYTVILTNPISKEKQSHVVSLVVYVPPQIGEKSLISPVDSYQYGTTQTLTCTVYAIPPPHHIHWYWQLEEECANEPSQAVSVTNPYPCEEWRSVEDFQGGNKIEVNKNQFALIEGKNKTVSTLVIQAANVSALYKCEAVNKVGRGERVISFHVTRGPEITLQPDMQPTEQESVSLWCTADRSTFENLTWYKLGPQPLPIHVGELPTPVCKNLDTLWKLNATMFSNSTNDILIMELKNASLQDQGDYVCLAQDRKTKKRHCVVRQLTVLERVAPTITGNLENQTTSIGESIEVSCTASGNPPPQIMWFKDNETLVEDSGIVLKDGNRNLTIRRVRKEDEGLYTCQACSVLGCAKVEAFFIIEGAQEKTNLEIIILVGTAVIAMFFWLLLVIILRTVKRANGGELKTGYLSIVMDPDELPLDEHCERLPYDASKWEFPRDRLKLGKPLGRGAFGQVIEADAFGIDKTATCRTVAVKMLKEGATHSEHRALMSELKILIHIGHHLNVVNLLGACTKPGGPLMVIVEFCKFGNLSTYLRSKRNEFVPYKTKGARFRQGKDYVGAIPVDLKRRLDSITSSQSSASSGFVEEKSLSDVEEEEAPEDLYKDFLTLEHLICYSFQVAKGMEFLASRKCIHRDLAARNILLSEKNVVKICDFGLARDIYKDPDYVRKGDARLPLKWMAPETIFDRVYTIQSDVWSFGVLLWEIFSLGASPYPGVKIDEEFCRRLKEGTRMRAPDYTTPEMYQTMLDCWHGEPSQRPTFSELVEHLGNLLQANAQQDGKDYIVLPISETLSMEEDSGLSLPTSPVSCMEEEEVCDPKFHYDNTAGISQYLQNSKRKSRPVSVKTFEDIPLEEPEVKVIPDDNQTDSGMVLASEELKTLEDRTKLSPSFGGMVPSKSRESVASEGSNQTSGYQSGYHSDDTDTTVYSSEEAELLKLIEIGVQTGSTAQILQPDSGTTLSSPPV

MIC Tubular Like-Structures Formation [1]: 50 µM (≈ 21.1 µg/mL)
Compound: C[C@H]1NC(=O)CNC(=O)CCC/C=C/c2ccc(OCc3ccccc3)cc2NC1=O [Solo-4]
IC50 [2]: 69.6 ± 12.5 µM

MIC Tubular Like-Structures Formation [1]: >50 µM
Compound: C[C@H]1NC(=O)CNC(=O)CC/C=C/Cc2ccc(O)cc2NC1=O [Solo-5]
IC50 [2]: > 100 µM

MIC Tubular Like-Structures Formation [1]: >50 µM
Compound: C[C@H]1NC(=O)CNC(=O)CC/C=C/C(O)c2ccccc2NC1=O (stereo partly drawn) [Solo-6]
IC50 [2]: > 100 µM

Continued, compound first:

Compound: C[C@H]1NC(=O)CNC(=O)CC/C=C/Cc2ccc(OCc3ccccc3)cc2NC1=O [Solo-2]
MIC Tubular Like-Structures Formation [1]: >50 µM | IC50 [2]: 43.8 ± 1.2 µM

Compound: C[C@H]1NC(=O)CNC(=O)CC/C=C/Cc2ccccc2NC1=O [Solo-1]
MIC Tubular Like-Structures Formation [1]: >50 µM | IC50 [2]: > 100 µM

Compound: C[C@@H]1C(=O)NCC(=O)N[C@H](C)C(=O)Nc2cc(OCc3ccccc3)ccc2/C=C/C[C@@H]1O [Solo F–OH]
Phosphorylation of ERK1/2 in the presence of serum (ERK1/2): substantially reduced | MIC Tubular Like-Structures Formation [1]: 1 µM (≈ 0.452 µg/mL) | Remaining VEGFR2 kinase activity relative to vehicle control (DMSO) (human recombinant VEGFR2): 84.5 ± 3.3% | IC50 (BAEC invasion): ~5 µM | Disruption of endothelial tubular-like structures already formed on Matrigel [3]: not able to disrupt | Positive/Total (CAM of chicken embryos; 0.1 nmol/CAM): 1/7 | Positive/Total (CAM of chicken embryos; 0.5 nmol/CAM): 2/7 | Positive/Total (CAM of chicken embryos; 1 nmol/CAM): 6/9 | Positive/Total (CAM of chicken embryos; 5 nmol/CAM): 9/12 | Positive/Total (CAM of chicken embryos; 10 nmol/CAM): 10/10 | Dose reaching 50% of inhibition of CAM neovascularization (CAM of chicken embryos; CAM assay): lower than 1 nmol/CAM | Phosphorylation of Akt in the presence of serum (Akt): substantially reduced | MMP-2 degradation bands with compound in incubation buffer (MMP-2 [4]): unaffected | Presence of MMP-2 in cell extracts and conditioned media of BAEC (MMP-2 [5]): reduced | Score + / Total (mild response), % ([6]; compound 5 µM): 36.8% | Score + / Total (mild response), embryos ([6]; compound 5 µM): 7/19 | Score ++ / Total (strong response), % ([6]; compound 5 µM): 15.8% | Score ++ / Total (strong response), embryos ([6]; compound 5 µM): 3/19 | Score – / Total (no response to FGF-2), % ([6]; compound 5 µM): 47.4% | Score – / Total (no response to FGF-2), embryos ([6]; compound 5 µM): 9/19 | Score + / Total (mild response), % ([6]; compound 10 µM): 39.1% | Score + / Total (mild response), embryos ([6]; compound 10 µM): 9/23 | Score ++ / Total (strong response), % ([6]; compound 10 µM): 4.3% | Score ++ / Total (strong response), embryos ([6]; compound 10 µM): 1/23 | Score – / Total (no response to FGF-2), % ([6]; compound 10 µM): 56.5% | Score – / Total (no response to FGF-2), embryos ([6]; compound 10 µM): 13/23 | MMP-9 activity in HT1080 cells (MMP-9): decreased | MMP-2 activity in HT1080 cells (MMP-2 [7]): decreased | IC50 [2]: 18.1 ± 2.2 µM
